{"source": "patent US6803378B2", "about": "“HIV integrase inhibitors” (Bristol-Myers Squibb Company, priority 2000, dated 2004)"}
{"molecular_target": "T1, HIV Integrase (Human immunodeficiency virus type 1 group M subtype B, UniProt P04585)", "T1 construct": "0.26 ng of recombinant integrase was then incubated with the beads", "test": "In vitro activity against integrase, Method B (SPA assay)", "type": "biochemical", "conditions": "read-out: Percent inhibition of HIV Integrase at 70 uM", "protocol": "(§1) The in vitro activities, against integrase, of compounds of the present invention were measured by one of the following three methods.\n(§2) In Method B, the in vitro activity against integrase was measured by binding, for each reaction, 5 pmole of biotin labeled substrate DNA to 100 ug of Streptavidin coated PVT SPA beads (Amersham Pharmacia Biotech). 0.26 ng of recombinant integrase was then incubated with the beads for 90 min at 37° C. Unbound enzyme was removed by washing the complex followed by addition of inhibitors and 0.1 fmol of P33 labeled target DNA. Reaction was stopped by adding EDTA to a final concentration of 10 mM. Samples were counted in TopCountNXT (Packard) and the CPM was used as a measure of integration. Reaction condition was as described in A. Engelman and R. Craigie, J. Virol. 69, 5908-5911 (1995). The sequences of substrate and target DNA were described in Nucleic Acid Research 22, 1121-1122 (1994).", "units": {"inhibition at 70 µM": "%"}}
{"smiles": "O=C(O)/C(O)=C/C(=O)N(Cc1ccccc1)Cc1ccccc1", "note": "[Compound 14, 3-Dibenzylcarbamoyl-2-hydroxy-acrylic acid]", "inhibition at 70 µM": 94.5}
{"smiles": "CN(Cc1ccc(F)cc1)C(=O)/C=C(\\O)C(=O)O", "note": "[Compound 16, 3-[(4-Fluoro-benzyl)-methyl-carbamoyl]-2-hydroxy-acrylic acid]", "inhibition at 70 µM": 97}
{"smiles": "O=C(O)/C(O)=C/C(=O)N(Cc1ccc(F)cc1)Cc1ccc2ccccc2c1", "note": "[Compound 53, 3-[(4-Fluoro-benzyl)-naphthalen-2-ylmethyl-carbamoyl]-2-hydroxy-acrylic acid]", "inhibition at 70 µM": 99}
{"smiles": "CN(Cc1ccc2ccccc2c1)C(=O)/C=C(\\O)C(=O)O", "note": "[Compound 54, 2-Hydroxy-3-(methyl-naphthalen-2-ylmethyl-carbamoyl)-acrylic acid]", "inhibition at 70 µM": 99}
{"smiles": "O=C(O)/C(O)=C/C(=O)N(Cc1ccc2ccccc2c1)c1ccc(Cl)cc1", "note": "[Compound 55, 3-[(4-Chloro-phenyl)-naphthalen-2-ylmethyl-carbamoyl]-2-hydroxy-acrylic acid]", "inhibition at 70 µM": 99}
{"smiles": "O=C(O)/C(O)=C/C(=O)N(CCCc1ccccc1)c1ccc(Cl)cc1", "note": "[Compound 56, 3-[(4-Chloro-phenyl)-(3-phenyl-propyl)-carbamoyl]-2-hydroxy-acrylic acid]", "inhibition at 70 µM": 88}
{"smiles": "O=C(O)/C(O)=C/C(=O)N(Cc1ccc(Cl)cc1)Cc1ccc(Cl)cc1", "note": "[Compound 57, 3-[Bis-(4-chloro-benzyl)-carbamoyl]-2-hydroxy-acrylic acid]", "inhibition at 70 µM": 99}
{"smiles": "CN(Cc1ccc(F)c(Cl)c1)C(=O)/C=C(\\O)C(=O)O", "note": "[Compound 58, 3-[(3-Chloro-4-fluoro-benzyl)-methyl-carbamoyl]-2-hydroxy-acrylic acid]", "inhibition at 70 µM": 99}
{"smiles": "CN(Cc1ccc(F)c(F)c1)C(=O)/C=C(\\O)C(=O)O", "note": "[Compound 59, 3-[(3,4-Difluoro-benzyl)-methyl-carbamoyl]-2-hydroxy-acrylic acid]", "inhibition at 70 µM": 98}
{"smiles": "COc1cc(CN(C)C(=O)/C=C(\\O)C(=O)O)ccc1F", "note": "[Compound 60, 3-[(4-Fluoro-3-methoxy-benzyl)-methyl-carbamoyl]-2-hydroxy-acrylic acid]", "inhibition at 70 µM": 99}
{"smiles": "Cc1cc(CN(C)C(=O)/C=C(\\O)C(=O)O)ccc1F", "note": "[Compound 61, 3-[(4-Fluoro-3-methyl-benzyl)-methyl-carbamoyl]-2-hydroxy-acrylic acid]", "inhibition at 70 µM": 99}
{"smiles": "CN(Cc1cccc(Cl)c1)C(=O)/C=C(\\O)C(=O)O", "note": "[Compound 62, 3-[(3-Chloro-benzyl)-methyl-carbamoyl]-2-hydroxy-acrylic acid]", "inhibition at 70 µM": 99}
{"smiles": "CN(Cc1cccc(-c2ccc(F)cc2)c1)C(=O)/C=C(\\O)C(=O)O", "note": "[Compound 63, 3-[(4′-Fluoro-biphenyl-3-ylmethyl)-methyl-carbamoyl]-2-hydroxy-acrylic acid]", "inhibition at 70 µM": 98}
{"smiles": "CN(Cc1cccc(Oc2ccccc2)c1)C(=O)/C=C(\\O)C(=O)O", "note": "[Compound 64, 2-Hydroxy-3-[methyl-(3-phenoxy-benzyl)-carbamoyl]-acrylic acid]", "inhibition at 70 µM": 95}
{"smiles": "O=C(O)/C(O)=C/C(=O)N(Cc1ccc(F)cc1)c1ccc(Cl)cc1", "note": "[Compound 70, 3-[(4-Chloro-phenyl)-(4-fluoro-benzyl)-carbamoyl]-2-hydroxy-acrylic acid]", "inhibition at 70 µM": 92}
{"smiles": "Cc1ccc(CN(C(=O)/C=C(\\O)C(=O)O)c2ccc(Cl)cc2)cc1", "note": "[Compound 71, 3-[(4-Chloro-phenyl)-(4-methyl-benzyl)-carbamoyl]-2-hydroxy-acrylic acid]", "inhibition at 70 µM": 99}
{"smiles": "O=C(O)/C(O)=C/C(=O)N(Cc1ccc(F)cc1)c1ccc(F)cc1", "note": "[Compound 72, 3-[(4-Fluoro-benzyl)-(4-fluoro-phenyl)-carbamoyl]-2-hydroxy-acrylic acid]", "inhibition at 70 µM": 99}
{"smiles": "Cc1ccc(CN(C(=O)/C=C(\\O)C(=O)O)c2ccc(F)cc2)cc1", "note": "[Compound 73, 3-[(4-Fluoro-phenyl)-(4-methyl-benzyl)-carbamoyl]-2-hydroxy-acrylic acid]", "inhibition at 70 µM": 99}
{"smiles": "O=C(O)/C(O)=C/C(=O)N(Cc1ccc(F)cc1)Cc1ccco1", "note": "[Compound 74, 3-[(4-Fluoro-benzyl)-furan-2-ylmethyl-carbamoyl]-2-hydroxy-acrylic acid]", "inhibition at 70 µM": 98}
{"smiles": "COc1ccc(CN(Cc2ccc(F)cc2)C(=O)/C=C(\\O)C(=O)O)cc1Cl", "note": "[Compound 76, 3-[(3-Chloro-4-methoxy-benzyl)-(4-fluoro-benzyl)-carbamoyl]-2-hydroxy-acrylic acid]", "inhibition at 70 µM": 99}
{"smiles": "CN(CCC(c1ccc(F)cc1)c1ccc(F)cc1)C(=O)/C=C(\\O)C(=O)O", "note": "[Compound 80, 3-{[3,3-Bis-(4-fluoro-phenyl)-propyl]-methyl-carbamoyl}-2-hydroxy-acrylic acid]", "inhibition at 70 µM": 90}
{"smiles": "CN(Cc1ccccc1Cc1ccc(F)cc1)C(=O)/C=C(\\O)C(=O)O", "note": "[Compound 81, 3-{[2-(4-Fluoro-benzyl)-benzyl]-methyl-carbamoyl}-2-hydroxy-acrylic acid]", "inhibition at 70 µM": 95}
{"smiles": "CN(Cc1ccccc1Cc1ccccc1)C(=O)/C=C(\\O)C(=O)O", "note": "[Compound 84, 3-[(2-Benzyl-benzyl)-methyl-carbamoyl]-2-hydroxy-acrylic acid]", "inhibition at 70 µM": 88}
{"smiles": "Cc1ccc(CNC(=O)/C=C(\\O)C(=O)O)cc1F", "note": "[Compound 91, 3-(3-Fluoro-4-methyl-benzylcarbamoyl)-2-hydroxy-acrylic acid]", "inhibition at 70 µM": 99}
{"smiles": "O=C(/C=C(\\O)C(=O)O)NC(c1ccc(Cl)cc1)c1ccc(Cl)cc1", "note": "[Compound 92, 3-{[Bis-(4-chloro-phenyl)-methyl]-carbamoyl}-2-hydroxy-acrylic acid]", "inhibition at 70 µM": 94}
{"smiles": "O=C(CCCCCNC(=O)/C(O)=C/C(=O)N(Cc1ccc(F)cc1)Cc1ccc(F)cc1)NS(=O)(=O)c1ccccc1", "note": "[Compound 146, 2-Hydroxy-but-2-enedioic acid 1-[(6-benzenesulfonylamino-6-oxo-hexyl)-amide] 4-[bis-(4-fluoro-benzyl)-amide]]", "inhibition at 70 µM": 98}
{"molecular_target": "T1, HIV Integrase", "test": "In vitro activity against integrase, Method C (electroluminescence, ECL assay)", "type": "biochemical", "conditions": "read-out: Percent inhibition of HIV Integrase at 70 uM", "protocol": "as §1, §2\nMethod C (Electroluminesence Assay):\nThe ECL assay of Method C is essentially the same as the SPA assay of Method B, except that 0.5 μg of Streptavidin coated magnetic beads and 0.5 pmol Ru labeled target DNA were used for each reaction instead of SPA beads and P33 labeled DNA. The samples were read in a M8 analyzer (IGEN International, Inc).", "units": {"inhibition at 70 µM": "%"}}
{"smiles": "CC(C)N(CCCc1ccccc1)C(=O)/C=C(\\O)C(=O)O", "note": "[Compound 44, 2-Hydroxy-3-[isopropyl-(3-phenyl-propyl)-carbamoyl]-acrylic acid]", "inhibition at 70 µM": 95.5}
{"smiles": "CN(Cc1ccc(Cl)cc1)C(=O)/C=C(\\O)C(=O)O", "note": "[Compound 45, 3-[(4-Chloro-benzyl)-methyl-carbamoyl]-2-hydroxy-acrylic acid]", "inhibition at 70 µM": 99}
{"smiles": "CN(CCCc1ccc(F)cc1)C(=O)/C=C(\\O)C(=O)O", "note": "[Compound 46, 3-{[3-(4-Fluoro-phenyl)-propyl]-methyl-carbamoyl}-2-hydroxy-acrylic acid]", "inhibition at 70 µM": 99}
{"smiles": "O=C(O)/C(O)=C/C(=O)N(CCOc1ccc(F)cc1)Cc1ccc(F)cc1", "note": "[Compound 47, 3-{(4-Fluoro-benzyl)-[2-(4-fluoro-phenoxy)-ethyl]-carbamoyl}-2-hydroxy-acrylic acid]", "inhibition at 70 µM": 99}
{"smiles": "CN(Cc1ccc(F)c(Br)c1)C(=O)C=C(O)C(=O)O", "note": "[Compound 48, 3-[(3-Bromo-4-fluoro-benzyl)-methyl-carbamoyl]-2-hydroxy-acrylic acid]", "inhibition at 70 µM": 99}
{"smiles": "O=C(O)/C(O)=C/C(=O)N(CCOc1ccccc1)Cc1ccc(F)cc1", "note": "[Compound 49, 3-[(4-Fluoro-benzyl)-(2-phenoxy-ethyl)-carbamoyl]-2-hydroxy-acrylic acid]", "inhibition at 70 µM": 99}
{"smiles": "CC(c1ccc(F)cc1)N(C)C(=O)/C=C(\\O)C(=O)O", "note": "(stereo not shown) [Compound 50, 3-{[1-(4-Fluoro-phenyl)-ethyl]-methyl-carbamoyl}-2-hydroxy-acrylic acid]", "inhibition at 70 µM": 99}
{"smiles": "O=C(O)/C(O)=C/C(=O)N(CCCc1ccccc1F)Cc1ccc(F)cc1", "note": "[Compound 51, 3-{(4-Fluoro-benzyl)-[3-(2-fluoro-phenyl)-propyl]-carbamoyl}-2-hydroxy-acrylic acid]", "inhibition at 70 µM": 100}
{"smiles": "O=C(O)/C(O)=C/C(=O)N(Cc1ccc(F)cc1)CC1CC1c1ccccc1", "note": "(stereo not shown) [Compound 52, 3-[(4-Fluoro-benzyl)-(2-phenyl-cyclopropylmethyl)-carbamoyl]-2-hydroxy-acrylic acid]", "inhibition at 70 µM": 99}
{"smiles": "CN(Cc1ccco1)C(=O)/C=C(\\O)C(=O)O", "note": "[Compound 75, 3-(Furan-2-ylmethyl-methyl-carbamoyl)-2-hydroxy-acrylic acid]", "inhibition at 70 µM": 91}
{"smiles": "CN(C(=O)/C=C(\\O)C(=O)O)C(Cc1ccc(F)cc1)c1ccc(F)cc1", "note": "(stereo not shown) [Compound 78, 3-{[1,2-Bis-(4-fluoro-phenyl)-ethyl]-methyl-carbamoyl}-2-hydroxy-acrylic acid]", "inhibition at 70 µM": 75}
{"smiles": "CNC(=O)c1cccc(C(c2ccc(F)cc2)N(C)C(=O)/C=C(\\O)C(=O)O)c1", "note": "(stereo not shown) [Compound 79, 3-{[(4-Fluoro-phenyl)-(3-methylcarbamoyl-phenyl)-methyl]-methyl-carbamoyl}-2-hydroxy-acrylic acid]", "inhibition at 70 µM": 90}
{"smiles": "O=C(O)/C(O)=C/C(=O)N(CCCc1ccc(-c2ccccc2)cc1)Cc1ccc(F)cc1", "note": "[Compound 85, 3-[(3-Biphenyl-4-yl-propyl)-(4-fluoro-benzyl)-carbamoyl]-2-hydroxy-acrylic acid]", "inhibition at 70 µM": 94}
{"smiles": "O=C(O)/C(O)=C/C(=O)N(CCc1ccncc1)Cc1ccc(F)cc1", "note": "[Compound 86, 3-[(4-Fluoro-benzyl)-(2-pyridin-4-yl-ethyl)-carbamoyl]-2-hydroxy-acrylic acid]", "inhibition at 70 µM": 97}
